In the NIST ThermoML archive (doi:10.1016/j.fluid.2006.05.032):

Conditions: Liquid, Vibrating tube method

CCCO [propan-1-ol]
mass density [kg/m3]
Conditions	293.15 K	303.15 K	313.15 K	323.15 K	333.15 K	343.15 K	353.15 K
100 kPa	803.5	795.2	787.6	779.3	770.5	761	752.2
5000 kPa	807.3	799.2	791.9	783.7	775.4	766	757.6
10000 kPa	810.9	802.9	795.9	788	780	770.7	762.7
15000 kPa	814.3	806.7	799.7	792	784.3	775.3	767.6
20000 kPa	817.7	810.1	803.3	795.8	788.4	779.6	772.1
25000 kPa	821	813.6	806.8	799.7	792	783.7	776.3
30000 kPa	824	816.7	810.2	803.2	795.7	787.6	780.4
35000 kPa	827	819.8	813.5	806.6	799.2	791.2	784.1
40000 kPa	829.9	822.9	816.6	809.9	802.6	794.7	787.7
45000 kPa	832.7	825.8	819.7	813	805.9	798.3	791.8
50000 kPa	835.4	828.8	822.7	816.1	809.1	801.6	795.1
55000 kPa	838.1	831.6	825.5	819	812.3	804.6	798.5
60000 kPa	840.7	834.2	828.3	821.8	815.2	807.7	801.7
65000 kPa	843.2	837	831	824.6	818.1	810.6	805

Cc1ccccc1 [toluene]
mass density [kg/m3]
Conditions	293.15 K	303.15 K	313.15 K	323.15 K	333.15 K	343.15 K	353.15 K
100 kPa	867.1	857.5	847.8	838.4	828.8	819.4	809.7
5000 kPa	870.6	861.4	852	842.7	833.5	824.5	815.1
10000 kPa	874.2	865.1	856.1	847	838.2	829.3	820.3
15000 kPa	877.6	869	859.9	851.1	842.6	833.9	825.3
20000 kPa	881.1	872.4	863.5	855	846.6	838.1	829.9
25000 kPa	884.2	875.8	867.1	858.9	850.5	842.3	834
30000 kPa	887.3	879	870.5	862.5	854.3	846.2	838.2
35000 kPa	890.3	882.1	873.8	866	857.9	850.1	842.2
40000 kPa	893.3	885.2	877	869.4	861.4	853.7	846.1
45000 kPa	896.1	888.2	880.2	872.5	864.8	857.4	849.8
50000 kPa	898.9	891.1	883.3	875.7	868.1	860.8	853.3
55000 kPa	901.6	894	886.2	878.7	871.4	864.2	856.7
60000 kPa	904.2	896.7	889	881.7	874.5	867.4	860.1
65000 kPa	906.7	899.2	891.8	884.6	877.5	870.3	863.5
